These results are taken from patent US4534898A, “1-Oxa-1-dethia-cephalosporin derivatives” (Merck & Co., Inc., priority 1982, dated 1985).

≈ marks a conversion by molar mass, not a printed value. Like-named read-outs stand apart in the source and are kept apart here. Bounds are passed on as bounds.

What all share (assay type): cell-based
Assay [1] deals with Pr. vulgaris GN76. In words: MIC against Pr. vulgaris GN76. Conditions: Proteus vulgaris. From the text: (§1) The compounds (I) of this invention are clearly different from various cephem derivatives described in Japanese Patent Pre-publication ("Kokai") No. 25551/78 and U.S. Pat. No. 4,226,866 in respect of the presence of a lower alkyl group at 2-position of the cephem nucleus. […] Minimum inhibitory concentrations (M.I.C.) (μg/ml) of the compounds (I) to various bacteria are set out in Table 1 below.

Assay [2] has as its system Staph. aureus Smith. In words: MIC against Staph. aureus Smith. Conditions: Staphylococcus aureus.
Text: as §1

Assay [3] has as its system C. freundii CN346. Put plainly: MIC against C. freundii CN346. The settings on record: Citrobacter freundii.
Text: as §1

Assay [4] relates to Pr. mirabilis GN79. Put plainly: MIC against Pr. mirabilis GN79. Conditions: Proteus mirabilis.
Text: as §1

Assay [5] relates to Ps. aeruginosa. Put plainly: MIC against Ps. aeruginosa. Conditions: Pseudomonas aeruginosa.
Text: as §1

In assay [6] the test system is Staph. aureus 209P JC-1. In words: MIC against Staph. aureus 209P JC-1. Conditions: Staphylococcus aureus.
Text: as §1

The test system of assay [7] is S. typhimurium LT-2. Put plainly: MIC against S. typhimurium LT-2. Conditions: Salmonella enterica.
Text: as §1

Assay [8] has as its system Kl. pneumoniae PCI 602. Put plainly: MIC against Kl. pneumoniae PCI 602. The settings on record: Klebsiella pneumoniae, PCI602.
Text: as §1

Assay [9] has as its system Pr. rettgeri GN624. Put plainly: MIC against Pr. rettgeri GN624. Conditions: Providencia rettgeri.
Text: as §1

Assay [10] relates to Ent. cloacae G-0006. Put plainly: MIC against Ent. cloacae G-0006. Conditions: Enterobacter cloacae, G0006.
Text: as §1

Assay [11] relates to Ser. marcescens No. 2. Put plainly: MIC against Ser. marcescens No. 2. Conditions: Serratia marcescens.
Text: as §1

The mark [12] stands for this setting: Pr. vulgaris GN76, read-out: MIC.
[13] abbreviates: C. freundii CN346, read-out: MIC.
Where [14] appears, read: S. typhimurium LT-2, read-out: MIC.
Setting [15] is: Ser. marcescens No. 2, read-out: MIC.

Take `CO[C@@]1(NC(=O)Cc2cccs2)C(=O)N2C(C(=O)O)=C(CSc3nnnn3C)[C@H](C)O[C@@H]21` [compound 4, 7β-(2-Thienylacetamido)-7α-methoxy-2β-methyl-3-(1-methyl-1H--tetrazole-5-yl)thiomethyl-1-oxa-1-dethia-3-cephem-4-carboxylic acid]: the MIC in assay [1] (setting [12]) was 0.39 mg/L (≈ 0.812 µM); in assay [2], 0.2 mg/L (≈ 0.416 µM); in assay [3] (setting [13]), 100 mg/L (≈ 208 µM); in assay [4], 12.5 mg/L (≈ 26 µM); in assay [5], more than 100 mg/L; in assay [6], 0.2 mg/L (≈ 0.416 µM). The MIC in assay [7] (setting [14]) was found to be 0.05 mg/L (≈ 0.104 µM); in assay [8], 1.56 mg/L (≈ 3.25 µM); in assay [9], 25 mg/L (≈ 52 µM); in assay [10], 100 mg/L (≈ 208 µM); in [11] (NO.2), 1.56 mg/L (≈ 3.25 µM).
With `CO[C@@]1(NC(=O)C(C(=O)O)c2cccs2)C(=O)N2C(C(=O)O)=C(CSc3nnnn3C)[C@@H](C)O[C@@H]21` (stereo partly drawn) [compound 5, 7β-[2-(2-Thienyl)-2-carboxyacetamido]-7α-methoxy-2α-methyl-3-(1-methyl-1H--tetrazole-5-yl)thiomethyl-1-oxa-1-dethia-3-cephem-4-carboxylic acid], the MIC in assay [1] (setting [12]) amounted to 0.39 mg/L (≈ 0.744 µM); in [2] it was 0.78 mg/L (≈ 1.49 µM); in [3] (setting [13]) it was 25 mg/L (≈ 47.7 µM); in assay [4] it was 0.78 mg/L (≈ 1.49 µM); in [5] it was 100 mg/L (≈ 191 µM); in assay [6], 0.78 mg/L (≈ 1.49 µM). In addition, the MIC in assay [7] (setting [14]) worked out at 0.1 mg/L (≈ 0.191 µM); in assay [8], 1.56 mg/L (≈ 2.97 µM); in assay [9], 3.13 mg/L (≈ 5.97 µM); in assay [10], 100 mg/L (≈ 191 µM); in assay [11] (setting [15]), 0.78 mg/L (≈ 1.49 µM).
Regarding `CO[C@@]1(NC(=O)C(C(=O)O)c2ccsc2)C(=O)N2C(C(=O)O)=C(CSc3nnnn3C)[C@H](C)O[C@@H]21` (stereo partly drawn) [compound 7, 7β-[2-(3-Thienyl)-2-carboxyacetamido]-7α-methoxy-2β-methyl-3-(1-methyl-1H--tetrazole-5-yl)thiomethyl-1-oxa-1-dethia-3-cephem-4-carboxylic acid], the MIC was 0.1 mg/L (≈ 0.191 µM) in [1] (setting [12]); 1.56 mg/L (≈ 2.97 µM) in assay [2]; 1.56 mg/L (≈ 2.97 µM) in assay [3] (setting [13]); 0.2 mg/L (≈ 0.381 µM) in assay [4]; 25 mg/L (≈ 47.7 µM) in [5]; 1.56 mg/L (≈ 2.97 µM) in assay [6]. Also, the MIC in assay [7] (setting [14]) was not above 0.025 mg/L; in assay [8], 0.05 mg/L (≈ 0.0953 µM); in [9], 0.05 mg/L (≈ 0.0953 µM); in assay [10] it was 3.13 mg/L (≈ 5.97 µM); in assay [11] (setting [15]) it was 0.2 mg/L (≈ 0.381 µM).
Turning to `C[C@H]1O[C@@H]2[C@H](NC(=O)Cc3cccs3)C(=O)N2C(C(=O)O)=C1CSc1nnnn1C` [compound 1, 7-(2-Thienylacetamido)-2α-methyl-3-(1-methyl-1H--tetrazole-5-yl)thiomethyl-1-oxa-1-dethia-3-cephem-4-carboxylic acid], the MIC in [1] (setting [12]) is 0.1 mg/L (≈ 0.222 µM); in [2], 0.2 mg/L (≈ 0.444 µM); in assay [3] (setting [13]), 3.13 mg/L (≈ 6.95 µM); in [4], 0.1 mg/L (≈ 0.222 µM); in assay [5] it was 12.5 mg/L (≈ 27.7 µM); in assay [6], 0.2 mg/L (≈ 0.444 µM). Also, the MIC in [7] (setting [14]) turned out to be 0.025 mg/L (≈ 0.0555 µM); in assay [8], 0.1 mg/L (≈ 0.222 µM); in [9], 0.05 mg/L (≈ 0.111 µM); in [10], 25 mg/L (≈ 55.5 µM); in assay [11] (setting [15]), 0.1 mg/L (≈ 0.222 µM).
Take `CO[C@@]1(NC(=O)Cc2cccs2)C(=O)N2C(C(=O)O)=C(CSc3nnnn3C)[C@@H](C)O[C@@H]21` [compound 3, 7β-(2-Thienylacetamido)-7α-methoxy-2α-methyl-3-(1-methyl-1H--tetrazole-5-yl)thiomethyl-1-oxa-1-dethia-3-cephem-4-carboxylic acid]: the MIC in [1] (setting [12]) was 12.5 mg/L (≈ 26 µM); in assay [2], 0.39 mg/L (≈ 0.812 µM); in assay [3] (setting [13]) it was more than 100 mg/L; in assay [4], more than 100 mg/L; in assay [5] it was more than 100 mg/L; in assay [6] it was 0.39 mg/L (≈ 0.812 µM). Further, the MIC in [7] (TYPHIMURIUM) was 1.56 mg/L (≈ 3.25 µM); in assay [8], 25 mg/L (≈ 52 µM); in assay [9] it was more than 100 mg/L; in assay [10], more than 100 mg/L; in assay [11] (setting [15]), 12.5 mg/L (≈ 26 µM).
Regarding `C[C@@H]1O[C@@H]2[C@H](NC(=O)Cc3cccs3)C(=O)N2C(C(=O)O)=C1CSc1nnnn1C` [compound 2, 7-(2-Thienylacetamido)-2β-methyl-3-(1-methyl-1H--tetrazole-5-yl)thiomethyl-1-oxa-1-dethia-3-cephem-4-carboxylic acid], the MIC in assay [1] (GN76) is 1.56 mg/L (≈ 3.46 µM); in [2] it was 0.05 mg/L (≈ 0.111 µM); in assay [3] (setting [13]), 100 mg/L (≈ 222 µM); in assay [4], 12.5 mg/L (≈ 27.7 µM); in assay [5] it was more than 100 mg/L; in [6] it was 0.025 mg/L (≈ 0.0555 µM). Also, the MIC in assay [7] (setting [14]) was determined as 0.1 mg/L (≈ 0.222 µM); in [8], 1.56 mg/L (≈ 3.46 µM); in assay [9], 12.5 mg/L (≈ 27.7 µM); in assay [10] it was 100 mg/L (≈ 222 µM); in assay [11] (setting [15]), 6.25 mg/L (≈ 13.9 µM).
As to `CO[C@@]1(NC(=O)C(C(=O)O)c2cccs2)C(=O)N2C(C(=O)O)=C(CSc3nnnn3C)[C@H](C)O[C@@H]21` (stereo partly drawn) [compound 6, 7β-[2-(2-Thienyl)-2-carboxyacetamido]-7α-methoxy-2β-methyl-3-(1-methyl-1H--tetrazole-5-yl)thiomethyl-1-oxa-1-dethia-3-cephem-4-carboxylic acid], the MIC was 0.1 mg/L (≈ 0.191 µM) in assay [1] (setting [12]); 0.78 mg/L (≈ 1.49 µM) in assay [2]; 1.56 mg/L (≈ 2.97 µM) in assay [3] (CN346); 0.1 mg/L (≈ 0.191 µM) in assay [4]; 25 mg/L (≈ 47.7 µM) in assay [5]; 0.39 mg/L (≈ 0.744 µM) in [6]. The MIC is not above 0.025 mg/L in assay [7] (setting [14]); 1.56 mg/L (≈ 2.97 µM) in [8]; not above 0.025 mg/L in assay [9]; 6.25 mg/L (≈ 11.9 µM) in [10]; 0.2 mg/L (≈ 0.381 µM) in assay [11] (setting [15]).

By MIC is commonly meant the smallest concentration in the dilution series that meets the test's criterion for growth inhibition.
